Source: ChEMBL document CHEMBL3804794, “Design, synthesis and biological evaluation of pyrazol-furan carboxamide analogues as novel Akt kinase inhibitors” (Eur J Med Chem, 2016)

Experiments:
[1] = Antiproliferative activity against human OVCAR8 cells after 72 hrs by SRB assay; assay type: functional, cell-based; conditions: OVCAR-8, 72 h
[2] = target: T1, RAC-alpha serine/threonine-protein kinase (Homo sapiens, UniProt P31749); assay: Inhibition of Akt1 (unknown origin) expressed in Escherichia coli using peptide substrate after 1 hr by HTRF assay
[3] = Antiproliferative activity against human HCT116 cells after 72 hrs by SRB assay; assay type: functional, cell-based; conditions: HCT-116, 72 h
[4] = target: T1, RAC-alpha serine/threonine-protein kinase; assay: Inhibition of Akt1 (unknown origin) expressed in Escherichia coli at 1 ug/ml using peptide substrate after 1 hr by HTRF assay
[5] = Inhibition of PKA (unknown origin) after 60 mins by Z-LYTE kinase assay; set-up: species or system Homo sapiens
[6] = target: T2, Testis-specific serine/threonine-protein kinase 1 (Mus musculus, UniProt Q61241); assay: Inhibition of mouse TSSK1 by luminescent ADP-Glo assay kit
T2 sequence (Q61241 whole entry): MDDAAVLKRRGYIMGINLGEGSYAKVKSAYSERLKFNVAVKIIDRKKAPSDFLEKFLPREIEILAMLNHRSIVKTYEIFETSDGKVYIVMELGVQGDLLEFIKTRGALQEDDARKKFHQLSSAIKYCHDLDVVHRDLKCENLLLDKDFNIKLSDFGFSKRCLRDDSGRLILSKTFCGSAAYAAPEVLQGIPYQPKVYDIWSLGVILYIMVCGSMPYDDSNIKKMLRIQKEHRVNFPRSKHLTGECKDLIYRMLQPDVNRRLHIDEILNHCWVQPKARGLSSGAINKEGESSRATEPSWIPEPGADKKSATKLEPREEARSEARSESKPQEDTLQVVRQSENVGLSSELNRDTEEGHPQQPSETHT

[7] = Inhibition of Akt in human PTEN-null LNCAP cells assessed as suppression in PRAS40 phosphorylation after 1 hr by ELISA analysis; assay type: cell-based
[8] = Effect on total GAPDH levels in human PC3 cells at 1 to 10 uM after 3 hrs by western blot analysis; assay type: ADME, cell-based; conditions: pc-3, 3 h
[9] = Effect on total Akt levels in human PC3 cells at 1 to 10 uM after 3 hrs by western blot analysis; assay type: ADME, cell-based; conditions: pc-3, 3 h
[10] = Effect on total GSK3beta levels in human PC3 cells at 1 to 10 uM after 3 hrs by western blot analysis; assay type: ADME, cell-based; conditions: pc-3, 3 h

T1 sequence (P31749 whole entry): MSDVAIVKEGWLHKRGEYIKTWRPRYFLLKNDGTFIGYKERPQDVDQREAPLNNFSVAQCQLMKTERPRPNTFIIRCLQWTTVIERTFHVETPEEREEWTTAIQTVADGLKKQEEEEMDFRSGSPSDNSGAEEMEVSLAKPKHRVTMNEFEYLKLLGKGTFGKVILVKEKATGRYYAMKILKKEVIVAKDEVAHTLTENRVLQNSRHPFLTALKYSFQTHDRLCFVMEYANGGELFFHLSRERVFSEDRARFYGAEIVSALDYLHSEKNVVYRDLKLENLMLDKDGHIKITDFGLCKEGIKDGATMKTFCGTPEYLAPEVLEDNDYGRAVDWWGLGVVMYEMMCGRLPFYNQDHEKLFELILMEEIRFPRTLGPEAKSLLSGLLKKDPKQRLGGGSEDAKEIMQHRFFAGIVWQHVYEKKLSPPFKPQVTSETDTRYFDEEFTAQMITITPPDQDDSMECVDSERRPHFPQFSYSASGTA

IC50 [2] [µM] | Structure (SMILES) | IC50 [1] [µM] | IC50 [3] [µM] | also measured
0.92 | Cn1ncc(Cl)c1-c1coc(C(=O)NC2(c3ccc(F)cc3)CCNCC2)c1 | 6.46 | 10.1 | 
 | Cn1ncc(Br)c1-c1cc(C(=O)NC2(c3ccc(Cl)c(Cl)c3)CCNCC2)n(C)c1Br | 4.7 | 7.75 | inhibition [4]: 30.3%
1.26 | Cn1cc(-c2c(Br)cnn2C)cc1C(=O)NC1(c2ccc(Cl)c(Cl)c2)CCNCC1 | 2.83 | 12.9 | 
2.02 | Cn1ncc(Br)c1-c1coc(C(=O)NC2(c3ccc(F)cc3)CCNCC2)c1 | 20.1 | 18.1 | 
0.39 | Cn1ncc(Cl)c1-c1cc(C(=O)NC2(c3ccc(F)cc3)CCNCC2)oc1Cl | 4.81 | 6.47 | 
 | Cn1nccc1-c1oc(C(=O)NC2(c3ccc(Cl)c(Cl)c3)CCNCC2)cc1Br | 6.87 | 24.8 | inhibition [4]: 49.4%
 | Cn1ncc(Br)c1-c1oc(C(=O)NC2(c3ccc(Cl)c(Cl)c3)CCNCC2)cc1Br | 5.81 | 16.4 | inhibition [4]: 43.5%
1.48 | Cn1ncc(Cl)c1-c1oc(C(=O)NC2(c3ccc(Cl)c(Cl)c3)CCNCC2)cc1Br | 5.95 | 6.97 | 
 | CN[C@@H]1C[C@H]2O[C@@](C)([C@@H]1OC)n1c3ccccc3c3c4c(c5c6ccccc6n2c5c31)C(=O)NC4 [STAUROSPORINE] |  |  | IC50 [5]: 0.0082 µM; IC50 [6]: 0.00033 µM
0.32 | Cn1ncc(Cl)c1-c1csc(C(=O)NC2(c3ccc(F)cc3)CCNCC2)c1 | 8.19 | 18.3 | 
 | Cn1ncc(Cl)c1-c1cc(C(=O)N[C@H](CN)Cc2ccc(F)c(F)c2)oc1Cl [UPROSERTIB] |  |  | IC50 [7]: 0.0756 µM
0.92 | Cn1nccc1-c1csc(C(=O)NC2(c3ccc(F)cc3)CCNCC2)c1 | 14.3 | 24.8 | 
1.91 | Cn1ncc(Cl)c1-c1ccc(C(=O)NC2(c3ccc(Cl)c(Cl)c3)CCNCC2)cc1 | 5.21 | 11.9 | 
0.071 | Cn1nccc1-c1csc(C(=O)NC2(c3ccc(Cl)c(Cl)c3)CCNCC2)c1 | 1.61 | 3.92 | 
0.85 | Cn1ncc(Cl)c1-c1c(Cl)c(C(=O)NC2(c3ccc(Cl)c(Cl)c3)CCNCC2)n(C)c1Cl | 1.77 | 9.28 | 
 | NC1(C(=O)N[C@@H](CCO)c2ccc(Cl)cc2)CCN(c2nc[nH]c3nccc2-3)CC1 [CAPIVASERTIB] | 7.27 | 5.2 | IC50 [7]: 0.337 µM
0.36 | Cn1ncc(Br)c1-c1csc(C(=O)NC2(c3ccc(F)cc3)CCNCC2)c1 | 7.78 | 17.5 | 
0.44 | Cn1ncc(Br)c1-c1coc(C(=O)NC2(c3ccc(Cl)c(Cl)c3)CCNCC2)c1 | 3.77 | 4 | 
0.061 | Cn1ncc(Cl)c1-c1cc(C(=O)NC2(c3ccc(Cl)c(Cl)c3)CCNCC2)oc1Cl | 9.76 | 7.76 | IC50 [7]: 0.0304 µM; Activity [8]: Non-toxic; Activity [9]: Non-toxic; Activity [10]: Non-toxic
1.4 | Cn1ncc(Br)c1-c1ccc(C(=O)NC2(c3ccc(Cl)c(Cl)c3)CCNCC2)cc1 | 1.96 | 11 | 
